Activity calls are given as the source filed them. The calls are words filed in the database; no cut-off is given here.
Key:
Tubulin (Homo sapiens) = Tubulin (Homo sapiens) (UniProt P68371+Q9H4B7+P0DPH7+P68366+Q13509+Q71U36+P04350+Q3ZCM7+P07437+P68363+Q9BQE3+Q6PEY2+Q13885+Q9BVA1+Q9BUF5); assay: Stabilization of microtubule in human RPE-MYC cells transfected with BCL2 assessed as misaligned chromosomes in metaphase cells at 50 nM measured after 24 hrs by immunofluorescence staining based analysis; type: cell-based
[1] = Induction of mitotic arrest in human RPE-MYC cells transfected with BCL2 assessed as mitotic index at 50 nM measured after 24 hrs by DAPI staining based bright field microscopic analysis (reference value: 3.5%); type: functional
RPE [2] = assay: Inhibition of actin polymerization in human RPE-MYC cells transfected with BCL2 assessed as accumulation of polyploid cells with multilobular nuclei at 2 ug/ml measured after 48 hrs by immunofluorescence staining based analysis; type: cell-based; conditions: dose 2.0 µg/ml
[3] = Induction of mitotic arrest in human RPE-MYC cells transfected with BCL2 assessed as mitotic index at 2 ug/ml measured after 24 hrs by DAPI staining based bright field microscopic analysis (reference value: 3.5%); type: functional; conditions: dose 2 µg/ml
RPE [4] = assay: Inhibition of actin polymerization in human RPE-MYC cells transfected with BCL2 assessed as chromosome misalignment in metaphase at 2 ug/ml measured after 24 hrs by immunofluorescence staining based analysis; type: cell-based; conditions: dose 2.0 µg/ml
RPE [5] = assay: Inhibition of actin polymerization in human RPE-MYC cells transfected with BCL2 assessed as lagging chromosomes in anaphase at 2 ug/ml measured after 24 hrs by immunofluorescence staining based analysis; type: cell-based; conditions: dose 2.0 µg/ml

Q: Which Activity (Tubulin (Homo sapiens)) does the source give for `CC(=O)O[C@H]1C(=O)[C@@]2(C)[C@H]([C@H](OC(=O)c3ccccc3)[C@]3(O)C[C@H](OC(=O)[C@H](O)[C@@H](NC(=O)c4ccccc4)c4ccccc4)C(C)=C1C3(C)C)[C@]1(OC(C)=O)CO[C@@H]1C[C@@H]2O` [PACLITAXEL] here?
A: The Activity was “inactive”.

Q: And the Activity [1]?
A: Its Activity is 97.3%.

Q: For `C=C1[C@@H](C)[C@H]2[C@H](Cc3ccccc3)NC(=O)[C@]23OC(=O)/C=C/[C@H](O)CCC[C@@H](C)C/C=C/[C@H]3[C@@H]1O` [CYTOCHALASIN B], which inhibition (RPE [2]) is on record?
A: Its inhibition is “Active”.

Q: And the Activity [3]?
A: Its Activity is 2.7%.

Q: And the inhibition (RPE [4])?
A: Its inhibition is “inactive”.

Q: What about the inhibition (RPE [5]) of the same compound?
A: Its inhibition is “inactive”.

Reference: ChEMBL document CHEMBL5385867, “2-Phenoxy-3, 4'-bipyridine derivatives inhibit AURKB-dependent mitotic processes by disrupting its localization” (Eur J Med Chem, 2023)
